According to US8765783B2, “Pharmaceutical composition for treatment of disease due to vascular constriction or vasodilation” (Ono Pharmaceuticals Co., Ltd., priority 2002, dated 2014):
“Also recorded” adds a separate entry of the source.

How the values were obtained:
removed rat heart = assay: Removed rat heart (Langendorff heart); conditions: Langendorff heart mode; for contractive force of heart muscle: EDG-5 antagonist
Excerpt: Rat (CD(SD)IGS, male, Charles River Japan Inc., 8 weeks old-10 weeks old, 300-450 g) was anesthetized by diethylether, opened the abdominal cavity, injected intravenously with heparin and then, exsanguinated to death. The heart was quickly removed by opening the chest cavity and the removed heart was immersed into cooled Krebs-Henseleit solution. The tissues were trimmed away under the cooling, aortic arches were inserted into the heart functional measuring equipment and fixed with sutures without leaking out. The rat heart function was measured using the heart functional measuring equipment (model IPH-W2, Labo-support). The equipment was used in the Langendorff Heart mode (non-working heart mode) and load was 68-70 mmHg. […] Catheter filled with physiological saline was inserted into the left ventricle, the catheter was connected to the piezotransducer (DX-100, Nihon Kohden) and the left ventricle pressure (LVP) was measured through strain compression amplifier (AP-601G, Nihon Kohden). Heart rate was calculated using LVP data with the heart rate measuring equipment (AT-601G, Nihon Kohden) and dLVP/dt was calculated with differential processor (EQ-641G, Nihon Kohden). Probes of electromagnetic flowmeter (model FF-020T, inside diameter 2 mm, Nihon Kohden) were set on the way to the passage of nutrient solution and the flow rate of nutrient solution (corresponding the blood flow rate of coronary artery) was measured using electromagnetic flowmeter (MFV-3100, Nihon Kohden). Administration of S1P and the compounds was performed by injection of dilution with nutrient solution into the passage of nutrient solution using infusion pump. The injection rate of drug solution was set as the flow rate of nutrient solution before starting of administration. […] Using the above mentioned model, effect of EDG-5 antagonist on heart function was examined. […] EDG-5 antagonist, the compound (1), the compound (2) and the compound (3) increased the flow rate of nutrient solution. In addition, they increased contractive force of heart muscle at the same time. […] It was considered that S1P had no direct chronotropic action and inotropic action on pacemaker and heart muscle and S1P had lowering effect on heart function by contracting the coronary blood vessels and ischemia.

SD rat = assay: Increase of rat blood pressure by S1P; format: in vivo; conditions: anesthetized male SD rat
Description: Male SD Rat (8 weeks old-10 weeks old) was anesthetized by injection of pentobarbital sodium (50 mg/mL/kg), after midline incision in the cervical region, trachea was exposed by exfoliation of tracheal muscle layer and cannula made of polyethylene was inserted into trachea. Next, catheter made of polyethylene was inserted into the common carotid artery and the common jugular vein. Catheter inserted into the common carotid artery was connected to the piezotransducer and the blood pressure was recorded on the recorder through strain compression amplifier. After the above mentioned operation was finished, in the case of the spinal chord was broken, the spinal chord was broken by insertion of stainless pole into the spinal chord cavity. After the spinal chord was broken, tracheal cannula was immediately connected into the artificial breathing device for small animals and artificial ventilation was performed under the conditions of a ventilatory volume 6 mL/kg and velocity 60 times/min. After then, S1P was administered and we confirmed blood pressure was increased. […] As a result, the compound (3) inhibited the increase of blood pressure by S1P.

[1] = tested on: canine removed renal artery; assay: Vasoconstrictor action of canine renal artery by S1P; set-up: species or system canine (beagle); conditions: for constriction of canine renal arteries: serotonin 1 μM (positive control), S1P 10 μM; for inhibitory effect on vasoconstrictive action of canine renal arteries by S1P: 10 μM test compound added 40 minutes after S1P
Excerpt: (§1) The removed renal arteries of euthanized male beagle (12 months old) was immersed in Krebs-Henseleit solution [112 mmol/L sodium chloride, 5.9 mmol/L potassium chloride, 2.0 mmol/L calcium chloride, 1.2 mmol/L magnesium chloride, 1.2 mmol/L monobasic sodium phosphate, 25.0 mmol/L sodium hydrogen carbonate NaHCO3, 11.5 mmol/L glucose, saturated by mixed gas (95% O2+5% CO2)]. They were divided by 3-4 mm with ophthalmic scissors and made as ringed samples. Made ringed tissues were hung in magnus tube (volume: 10 mL) filled with Krebs-Henseleit solution [37±1° C., aerated with mixed gas (95% O2+5% CO2)] using a hook. Next, they were loaded with 1 g resting tension stabilized for about 60 minutes, then constrictive movement was recorded on a recorder through strain compression amplifier (AP-601G, Nihon Kohden) from Force displacement transducer (FD pickup TB-611T). Serotonin (1 μM) is used as positive control for constriction action. After that, S1P (10 μM) adding, vasoconstrictive action was measured. As a result, serotonin and S1P constricted renal arteries.

[2] = tested on: rat removed thoracic aorta; assay: Vasoconstrictive action of rat removed thoracic aorta by S1P or phenylephrine; conditions: for constriction of rat thoracic aorta: phenylephrine 10 μM (positive control), S1P 10 μM
Excerpt: The removed thoracic aorta of euthanized SD rat (7-13 weeks old) was immersed in Krebs-Henseleit solution [112 mmol/L sodium chloride, 5.9 mmol/L potassium chloride, 2.0 mmol/L calcium chloride, 1.2 mmol/L magnesium chloride, 1.2 mmol/L monobasic sodium phosphate, 25.0 mmol/L sodium hydrogen carbonate NaHCO3, 11.5 mmol/L glucose, saturated by mixed gas (95% O2+5% CO2)]. They were divided by 3-4 mm with ophthalmic scissors and made as vortical samples. Made samples were hung in magnus tube (volume: 10 mL) filled with Krebs-Henseleit solution [37±1° C., aerated with mixed gas (95% O2+5% CO2)] using a hook. Next, they were loaded with 0.5 g resting tension stabilized for about 60 minutes, then constrictive movement was recorded on a recorder through strain compression amplifier (AP-601G, Nihon Kohden) from Force displacement transducer (FD pickup TB-611T). Sympathetic nerve stimulant, phenylephrine, (10 μM) is used as positive control for constriction action. After that, S1P (10 μM) adding, vasoconstrictive action was measured. As a result, phenylephrine and S1P constricted rat thoracic aorta.

[3] = tested on: canine removed basilar artery; assay: Vasoconstrictor action of canine removed basilar artery by S1P; set-up: species or system canine (beagle); conditions: for constriction of canine basilar arteries: serotonin 1 μM (positive control), S1P 10 μM; for inhibitory effect on vasoconstrictive action of canine basilar artery by S1P: 10 μM test compound added 20 minutes after S1P (10 μM)
Excerpt: as §1, with “basilar” for “renal”
As a result, test compounds having EDG-5 antagonist activity inhibited vasoconstrictive action by S1P.

human EDG-1 = target: T1, human EDG-1 (Homo sapiens, UniProt P21453); assay: Antagonist evaluation for EDG-1, intracellular calcium ion; format: cell-based; conditions: cells overexpressing human EDG-1
T1 construct: expressed in transfected cells

human EDG-5 = target: T2, human EDG-5 (Homo sapiens, UniProt O95136); assay: Antagonistic activity for EDG-5 by monitoring concentration change of intracellular calcium ion; format: cell-based; conditions: CHO cells overexpressing human EDG-5; S1P 100 nM
T2 construct: expressed in transfected cells; host or cells: CHO cells
Description: Chinese hamster ovary (CHO) cells overexpressed human EDG-5 gene were cultured in Ham's F12 medium (GIBCO BRL) containing 10% FBS (fetal bovine serum), penicillin/streptomycin, and blasticidin (5 μg/ml). Cultured cells were incubated in a Fura2 (5 μM)-AM solution [Ham's F12 medium containing FBS (10%), HEPES buffer (20 mM, pH7.4), and probenecid (2.5 mM)] at 37° C. for 60 minutes. Then they were washed once with a Hank's solution (2.5 mM) containing probenecid and immersed into the same solution. A plate was set on a fluorescent drug screening system, and the concentration of intracellular calcium ion was measured for 30 seconds with no stimulation. A solution of a compound (dimethyl sulfoxide (DMSO) solution of 1 nM to 10 μM at the final concentration) to be tested was added. After lapse of 5 minutes, S1P (final concentration: 100 nM) was added, the concentration of intracellular calcium ion before and after the addition was measured every 3 seconds (excitation wave length: 340 nm and 380 nm; fluorescent wave length: 500 nm). […]

human EDG-3 = target: T3, human EDG-3 (Homo sapiens, UniProt Q99500); assay: Antagonist evaluation for EDG-3, intracellular calcium ion; format: cell-based; conditions: cells overexpressing human EDG-3
T3 construct: expressed in transfected cells

canine thoracic aorta = assay: Vasoconstrictive action of canine thoracic aorta by S1P
rabbit thoracic aorta = assay: Vasoconstrictive action of rabbit thoracic aorta by S1P
[4] = tested on: rabbit vasoconstrictive action by S1P; assay: Rabbit vasoconstrictive action by S1P
[5] = tested on: rat removed basilar artery; assay: Vasoconstrictor action of rat removed basilar artery; conditions: 3 μM (FIG. 3, FIG. 4)
Description: Basilar arteries were removed from male rat (CD(SD)IGS, male, Charles River Japan, Inc., 8 weeks old-10 weeks old, 350-450 g) and quickly immersed in cooled Krebs-Henseleit solution. Removed basilar arteries were divided by about 3 mm width with ophthalmic scissors and made as ringed samples. Samples hung in micro tissue organ bath (MTOB-1: Preimetech Corp.) filled with Krebs-Henseleit solution (37° C.). They were loaded with about 0.2 g resting tension stabilized for about 60 minutes, and then constrictive movement was recorded on a recorder (linearcoda WR3320: Graphtec Corp.) through strain compression amplifier (AP-601G, Nihon Kohden) from micro tissue organ bath.

[6] = tested on: removed rabbit portal vein/mesenteric vein; assay: Constriction of the removed rabbit vein by S1P
Description: The portal vein/mesenteric vein was removed form male rabbit (NZ White, about 2 kg) under anesthesia and vertical sample of width 2-3 mm and length 3-4 mm was made. Made samples were hung in magnus tube (volume: 5 mL) filled with Krebs-Henseleit solution (37° C.) using a hook. They were loaded with 0.5 g resting tension stabilized for about 60 minutes, then constrictive movement was recorded on a recorder (linear recorder WR3320: Graphtec Corp.) through strain compression amplifier (AP-601G, Nihon Kohden) from Force displacement transducer (FD pickup TB-611T).

T1 sequence (P21453 whole entry): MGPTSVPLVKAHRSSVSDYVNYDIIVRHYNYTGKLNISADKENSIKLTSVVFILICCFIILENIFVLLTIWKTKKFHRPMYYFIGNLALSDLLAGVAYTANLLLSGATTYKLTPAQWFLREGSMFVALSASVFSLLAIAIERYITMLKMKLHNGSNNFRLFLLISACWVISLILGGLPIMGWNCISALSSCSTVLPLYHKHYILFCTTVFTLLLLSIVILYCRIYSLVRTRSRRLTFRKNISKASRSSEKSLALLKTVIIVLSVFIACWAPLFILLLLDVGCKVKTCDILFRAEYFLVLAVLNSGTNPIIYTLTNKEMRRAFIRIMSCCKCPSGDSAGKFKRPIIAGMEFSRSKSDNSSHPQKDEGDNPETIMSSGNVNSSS
T2 sequence (O95136 whole entry): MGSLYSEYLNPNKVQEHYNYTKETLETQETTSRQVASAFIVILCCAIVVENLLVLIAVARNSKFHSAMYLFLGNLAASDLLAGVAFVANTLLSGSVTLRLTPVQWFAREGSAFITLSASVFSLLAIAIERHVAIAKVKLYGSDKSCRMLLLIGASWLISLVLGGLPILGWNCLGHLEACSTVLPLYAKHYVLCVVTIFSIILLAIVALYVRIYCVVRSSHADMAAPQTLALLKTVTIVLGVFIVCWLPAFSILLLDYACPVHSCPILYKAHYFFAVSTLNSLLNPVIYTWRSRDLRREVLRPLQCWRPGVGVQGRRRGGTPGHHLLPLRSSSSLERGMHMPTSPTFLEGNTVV
T3 sequence (Q99500 whole entry): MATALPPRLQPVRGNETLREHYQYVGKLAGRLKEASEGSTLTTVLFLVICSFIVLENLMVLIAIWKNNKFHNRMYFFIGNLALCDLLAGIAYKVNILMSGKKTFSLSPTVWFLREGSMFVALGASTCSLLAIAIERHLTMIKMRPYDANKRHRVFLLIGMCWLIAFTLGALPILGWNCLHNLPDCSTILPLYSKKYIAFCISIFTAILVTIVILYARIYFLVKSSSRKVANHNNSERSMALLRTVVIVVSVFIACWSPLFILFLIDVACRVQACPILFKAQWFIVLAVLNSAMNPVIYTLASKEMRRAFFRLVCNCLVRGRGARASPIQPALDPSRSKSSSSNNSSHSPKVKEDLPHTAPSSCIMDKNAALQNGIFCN

Row | SMILES | constriction of canine renal arteries [1] | constriction of rat thoracic aorta [2] | constriction of canine basilar arteries [3] | flow rate of nutrient solution (corresponding the blood flow rate of coronary artery) (removed rat heart) | contractive force of heart muscle (removed rat heart) | IC50 (human EDG-1) [µM] | IC50 (human EDG-5) [µM] | IC50 (human EDG-3) [µM] | inhibitory effect on vasoconstrictive action of canine renal arteries by S1P [1] | inhibitory effect on vasoconstrictive action of canine basilar artery by S1P [3] | inhibitory effect on rabbit vasoconstrictive action by S1P [4] | other results
1 | CCCCCCCCCCCCC/C=C/[C@@H](O)[C@@H](N)COP(=O)(O)O [Example S1P, (2S,3R,4E)-2-amino-3-hydroxyoctadeca-4-enyl-1-phosphate] | constricted | constricted | constricted |  |  |  |  |  |  |  |  | effect of S1P on contractive force of heart muscle (removed rat heart): dose-dependently decreased; effect of S1P on rat blood pressure (SD rat): increased
2 | Cc1nn(C)c2nc(NNC(=O)Nc3c(Cl)cncc3Cl)cc(C(C)C)c12 [compound (1), N-(1H-1,3-dimethyl-4-isopropylpyrazolo[3,4-b]pyridin-6-yl)amino-N′-(3,5-dichloropyridin-4-yl)urea] |  |  |  | increased | increased | > 10 | 0.5 | > 10 | inhibited; also recorded: suppression | inhibited; also recorded: suppression | showed inhibitory effect | inhibition of vasoconstrictive action of rat thoracic aorta by S1P ([2]; 10 μM test compound added an hour after S1P (10 μM)): specifically inhibited; also recorded: suppression; inhibition of vasoconstrictive action of rat thoracic aorta by phenylephrine ([2]; 10 μM test compound, phenylephrine 10 μM): did not inhibit; also recorded: not showing the suppression; inhibitory effect on vasoconstrictive action of canine thoracic aorta by S1P (canine thoracic aorta): showed inhibitory effect; inhibitory effect on vasoconstrictive action of rabbit thoracic aorta by S1P (rabbit thoracic aorta): showed inhibitory effect
3 | O=C(Nc1cccc(C(F)(F)F)c1)N1CCC(O)(c2ccc(Br)cc2)CC1 [compound (2), 4-(4-bromophenyl)-4-hydroxy-N-(3-(trifluoromethyl)phenyl)-1-piperidinecarboxamide] |  |  |  | increased | increased | > 10 | 0.4 | > 10 | inhibited; also recorded: suppression | inhibited; also recorded: suppression | showed inhibitory effect | inhibitory effect on vasoconstrictor action of rat removed basilar artery by S1P [5]: inhibitory effect; also recorded: suppression; inhibitory effect on contraction of vein by S1P [6]: inhibitory effect; also recorded: suppression
4 | CNC[C@H](O)c1cccc(O)c1 [phenylephrine] |  | constricted |  |  |  |  |  |  |  |  |  | 
5 | NCCc1c[nH]c2ccc(O)cc12 [serotonin] | constricted |  | constricted |  |  |  |  |  |  |  |  | 
